A value given as a limit tells only on which side of the number the result lay.

By inhibition is commonly meant the share of the control response that was lost under treatment. Read a high inhibition as strong suppression.

Assay [1] concerns the target Transcriptional coactivator YAP1 (Homo sapiens) (UniProt P46937). Briefly: Inhibition of YAP (unknown origin) phosporylation relative to control. The note with it: concentration not given here.
The target in assay [2] is T1, Serine/threonine-protein kinase LATS1 (Homo sapiens) (UniProt O95835).
T1 sequence (whole entry): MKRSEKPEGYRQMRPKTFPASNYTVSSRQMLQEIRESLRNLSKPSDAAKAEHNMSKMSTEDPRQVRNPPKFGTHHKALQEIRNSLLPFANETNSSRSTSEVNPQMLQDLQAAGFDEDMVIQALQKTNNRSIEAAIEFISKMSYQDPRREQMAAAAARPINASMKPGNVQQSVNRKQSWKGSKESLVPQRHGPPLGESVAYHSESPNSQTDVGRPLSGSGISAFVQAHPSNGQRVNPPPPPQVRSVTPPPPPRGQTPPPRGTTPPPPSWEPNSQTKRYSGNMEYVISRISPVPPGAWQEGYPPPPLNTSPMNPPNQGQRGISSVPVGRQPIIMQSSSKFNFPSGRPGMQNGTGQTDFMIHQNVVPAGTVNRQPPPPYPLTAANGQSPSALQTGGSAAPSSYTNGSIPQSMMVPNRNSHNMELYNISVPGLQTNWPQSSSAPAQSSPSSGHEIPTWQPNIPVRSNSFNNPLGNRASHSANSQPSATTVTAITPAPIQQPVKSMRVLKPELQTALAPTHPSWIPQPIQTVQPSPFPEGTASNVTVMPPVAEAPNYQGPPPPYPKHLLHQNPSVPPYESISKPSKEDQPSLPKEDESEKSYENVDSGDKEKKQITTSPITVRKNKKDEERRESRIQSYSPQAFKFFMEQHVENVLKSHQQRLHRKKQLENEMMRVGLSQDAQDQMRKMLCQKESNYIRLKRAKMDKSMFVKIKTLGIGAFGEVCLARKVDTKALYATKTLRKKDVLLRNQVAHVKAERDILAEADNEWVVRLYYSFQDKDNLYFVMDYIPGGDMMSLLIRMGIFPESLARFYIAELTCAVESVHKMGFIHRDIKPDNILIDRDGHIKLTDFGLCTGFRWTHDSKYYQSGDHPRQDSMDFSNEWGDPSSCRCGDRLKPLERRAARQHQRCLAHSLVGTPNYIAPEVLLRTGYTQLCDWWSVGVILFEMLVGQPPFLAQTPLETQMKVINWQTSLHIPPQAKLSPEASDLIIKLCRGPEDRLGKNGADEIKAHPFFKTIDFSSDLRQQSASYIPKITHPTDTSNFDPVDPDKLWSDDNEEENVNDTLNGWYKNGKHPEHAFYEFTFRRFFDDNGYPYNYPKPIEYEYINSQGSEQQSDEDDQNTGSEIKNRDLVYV
The assay can be described thus: Inhibition of LATS1 (unknown origin) phosporylation relative to control. As to conditions: dose 10.0 µM.

Sequence of Transcriptional coactivator YAP1 (Homo sapiens) (P46937 whole entry): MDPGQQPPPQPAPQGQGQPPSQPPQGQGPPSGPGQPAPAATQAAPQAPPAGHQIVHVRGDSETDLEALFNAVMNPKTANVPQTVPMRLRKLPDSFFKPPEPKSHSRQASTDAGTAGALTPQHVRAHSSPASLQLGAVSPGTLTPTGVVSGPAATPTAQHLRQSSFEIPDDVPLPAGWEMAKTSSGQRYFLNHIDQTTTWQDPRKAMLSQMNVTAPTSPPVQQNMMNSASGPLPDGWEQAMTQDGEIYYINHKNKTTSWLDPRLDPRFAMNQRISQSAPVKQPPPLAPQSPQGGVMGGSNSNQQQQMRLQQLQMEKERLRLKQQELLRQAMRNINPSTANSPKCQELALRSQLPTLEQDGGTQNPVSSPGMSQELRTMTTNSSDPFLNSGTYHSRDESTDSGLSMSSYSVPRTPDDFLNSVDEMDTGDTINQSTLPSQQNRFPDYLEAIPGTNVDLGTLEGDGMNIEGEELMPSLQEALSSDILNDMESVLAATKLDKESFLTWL

In the case of `CCOc1cc2ncc(C#N)c(Nc3ccc(OCc4ccccn4)c(Cl)c3)c2cc1NC(=O)/C=C/CN(C)C`, the inhibition in assay [1] and in assay [2] was < 30% in each case.

The values above are taken from ChEMBL document CHEMBL5247606, “Advances of targeting the YAP/TAZ-TEAD complex in the hippo pathway for the treatment of cancers” (Eur J Med Chem, 2022).
